Measurements published in patent US20160326142A1, “PYRAZOLE CARBOXAMIDE COMPOUNDS, COMPOSITIONS AND METHODS OF USE” (Genentech, Inc., priority 2012, published 2016).

Biological target: T1, ITK (Homo sapiens, UniProt Q08881)
T1 construct: purchased Invitrogen PV3875
T1 sequence (Q08881 1-620): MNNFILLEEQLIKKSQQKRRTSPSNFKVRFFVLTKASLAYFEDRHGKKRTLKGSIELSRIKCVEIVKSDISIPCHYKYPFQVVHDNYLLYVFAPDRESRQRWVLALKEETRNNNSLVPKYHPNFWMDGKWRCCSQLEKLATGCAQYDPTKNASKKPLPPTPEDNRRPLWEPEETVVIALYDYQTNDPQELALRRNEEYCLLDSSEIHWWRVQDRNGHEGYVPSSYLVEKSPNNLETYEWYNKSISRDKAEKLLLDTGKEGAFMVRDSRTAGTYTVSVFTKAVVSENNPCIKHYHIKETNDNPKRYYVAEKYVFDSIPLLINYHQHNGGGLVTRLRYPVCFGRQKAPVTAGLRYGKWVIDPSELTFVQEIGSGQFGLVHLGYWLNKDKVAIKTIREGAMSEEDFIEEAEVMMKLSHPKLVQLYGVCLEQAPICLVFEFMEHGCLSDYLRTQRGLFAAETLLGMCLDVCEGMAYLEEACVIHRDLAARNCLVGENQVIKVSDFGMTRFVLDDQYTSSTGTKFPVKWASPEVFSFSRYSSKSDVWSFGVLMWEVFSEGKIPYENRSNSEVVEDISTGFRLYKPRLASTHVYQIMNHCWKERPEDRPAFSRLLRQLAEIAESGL
Experiment: ITK enzyme assay (Caliper or LCMS peptide phosphorylation)
Type: biochemical
Settings: purified ITK (Invitrogen PV3875), 20 μM ATP, Ki by Morrison's quadratic equation
Method in brief: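 Ki values come from Morrison quadratic fits of activity versus inhibitor concentration, adjusted for ATP-competitive inhibition against ATP/Km,app. Substrate and phosphopeptide from purified ITK reactions were resolved either microfluidically (Caliper, EDTA stop) or by LC-MS MRM (TCA stop).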

Ki [nM] | SMILES
12 | CC1CC(C(c2ccccc2)n2cc(NC(=O)c3n[nH]c4c3CCC(C)(C)C4)cn2)CCS1(=O)=O (single isomer, unassigned) [Example 139h, 6,6-dimethyl-N-(1-((2-methyl-1,1-dioxidotetrahydro-2H-thiopyran-4-yl)(phenyl)methyl)-1H-pyrazol-4-yl)-4,5,6,7-tetrahydro-1H-indazole-3-carboxamide]
0.4 | CC1(C)CCc2c(C(=O)Nc3cnn(C(c4ccccc4)C4CC[N+](C)([O-])CC4)c3)n[nH]c2C1 (single isomer, unassigned) [Example 140a, 4-((4-(6,6-dimethyl-4,5,6,7-tetrahydro-1H-indazole-3-carboxamido)-1H-pyrazol-1-yl)(phenyl)methyl)-1-methylpiperidine 1-oxide]
14 | CC1(C)CCc2c(C(=O)Nc3cnn(C(c4ccccc4)C4CC[N+](C)([O-])CC4)c3)n[nH]c2C1 (single isomer, unassigned) [Example 140b, 4-((4-(6,6-dimethyl-4,5,6,7-tetrahydro-1H-indazole-3-carboxamido)-1H-pyrazol-1-yl)(phenyl)methyl)-1-methylpiperidine 1-oxide]
< 0.1 | CC12Cc3[nH]nc(C(=O)Nc4cnn(C(c5ccccc5)C5CC[S+]([O-])CC5)c4)c3CC1C2(F)F (single isomer, unassigned) [Example 142a, 5,5-difluoro-5a-methyl-N-(1-((1-oxidotetrahydro-2H-thiopyran-4-yl)(phenyl)methyl)-1H-pyrazol-4-yl)-1,4,4a,5,5a,6-hexahydrocyclopropa[f]indazole-3-carboxamide]
< 0.1 | CC12Cc3[nH]nc(C(=O)Nc4cnn(C(c5ccccc5)C5CC[S+]([O-])CC5)c4)c3CC1C2(F)F (single isomer, unassigned) [Example 142b, 5,5-difluoro-5a-methyl-N-(1-((1-oxidotetrahydro-2H-thiopyran-4-yl)(phenyl)methyl)-1H-pyrazol-4-yl)-1,4,4a,5,5a,6-hexahydrocyclopropa[f]indazole-3-carboxamide]
< 0.1 | CC12Cc3[nH]nc(C(=O)Nc4cnn(C(c5ccccc5)C5CCCCS5(=O)=O)c4)c3CC1C2 (single isomer, unassigned) [Example 143a, N-(1-((1,1-dioxidotetrahydro-2H-thiopyran-2-yl)(phenyl)methyl)-1H-pyrazol-4-yl)-5a-methyl-1,4,4a,5,5a,6-hexahydrocyclopropa[f]indazole-3-carboxamide]
2 | CC12Cc3[nH]nc(C(=O)Nc4cnn(C(c5ccccc5)C5CCCCS5(=O)=O)c4)c3CC1C2 (single isomer, unassigned) [Example 143b, N-(1-((1,1-dioxidotetrahydro-2H-thiopyran-2-yl)(phenyl)methyl)-1H-pyrazol-4-yl)-5a-methyl-1,4,4a,5,5a,6-hexahydrocyclopropa[f]indazole-3-carboxamide]
2 | CC12Cc3[nH]nc(C(=O)Nc4cnn(C(c5ccccc5)C5CCCCS5(=O)=O)c4)c3CC1C2 (single isomer, unassigned) [Example 143c, N-(1-((1,1-dioxidotetrahydro-2H-thiopyran-2-yl)(phenyl)methyl)-1H-pyrazol-4-yl)-5a-methyl-1,4,4a,5,5a,6-hexahydrocyclopropa[f]indazole-3-carboxamide]
< 0.1 | CC12Cc3[nH]nc(C(=O)Nc4cnn(C(c5ccccc5)C5CCCCS5(=O)=O)c4)c3CC1C2 (single isomer, unassigned) [Example 143d, N-(1-((1,1-dioxidotetrahydro-2H-thiopyran-2-yl)(phenyl)methyl)-1H-pyrazol-4-yl)-5a-methyl-1,4,4a,5,5a,6-hexahydrocyclopropa[f]indazole-3-carboxamide]
0.1 | CC1(C)CCc2c(C(=O)Nc3cnn(C(c4cccnc4)C4CCCCS4(=O)=O)c3)n[nH]c2C1 (single isomer, unassigned) [Example 144a, N-(1-((1,1-dioxidotetrahydro-2H-thiopyran-2-yl)(pyridin-3-yl)methyl)-1H-pyrazol-4-yl)-6,6-dimethyl-4,5,6,7-tetrahydro-1H-indazole-3-carboxamide]
3 | CC1(C)CCc2c(C(=O)Nc3cnn(C(c4cccnc4)C4CCCCS4(=O)=O)c3)n[nH]c2C1 (single isomer, unassigned) [Example 144b, N-(1-((1,1-dioxidotetrahydro-2H-thiopyran-2-yl)(pyridin-3-yl)methyl)-1H-pyrazol-4-yl)-6,6-dimethyl-4,5,6,7-tetrahydro-1H-indazole-3-carboxamide]
0.1 | CC1(C)CCc2c(C(=O)Nc3cnn(C(c4cccnc4)C4CCCCS4(=O)=O)c3)n[nH]c2C1 (single isomer, unassigned) [Example 144c, N-(1-((1,1-dioxidotetrahydro-2H-thiopyran-2-yl)(pyridin-3-yl)methyl)-1H-pyrazol-4-yl)-6,6-dimethyl-4,5,6,7-tetrahydro-1H-indazole-3-carboxamide]
2 | CC1(C)CCc2c(C(=O)Nc3cnn(C(c4cccnc4)C4CCCCS4(=O)=O)c3)n[nH]c2C1 (single isomer, unassigned) [Example 144d, N-(1-((1,1-dioxidotetrahydro-2H-thiopyran-2-yl)(pyridin-3-yl)methyl)-1H-pyrazol-4-yl)-6,6-dimethyl-4,5,6,7-tetrahydro-1H-indazole-3-carboxamide]
0.1 | CC12Cc3[nH]nc(C(=O)Nc4cnn(C(c5cccnc5)C5CC[S+]([O-])CC5)c4)c3CC1C2 (single isomer, unassigned) [Example 146a, 5a-methyl-N-(1-((1-oxidotetrahydro-2H-thiopyran-4-yl)(pyridin-3-yl)methyl)-1H-pyrazol-4-yl)-1,4,4a,5,5a,6-hexahydrocyclopropa[f]indazole-3-carboxamide]
2 | CC12Cc3[nH]nc(C(=O)Nc4cnn(C(c5cccnc5)C5CC[S+]([O-])CC5)c4)c3CC1C2 (single isomer, unassigned) [Example 146b, 5a-methyl-N-(1-((1-oxidotetrahydro-2H-thiopyran-4-yl)(pyridin-3-yl)methyl)-1H-pyrazol-4-yl)-1,4,4a,5,5a,6-hexahydrocyclopropa[f]indazole-3-carboxamide]
0.1 | CC12Cc3[nH]nc(C(=O)Nc4cnn(C(c5cccnc5)C5CC[S+]([O-])CC5)c4)c3CC1C2 (single isomer, unassigned) [Example 146c, 5a-methyl-N-(1-((1-oxidotetrahydro-2H-thiopyran-4-yl)(pyridin-3-yl)methyl)-1H-pyrazol-4-yl)-1,4,4a,5,5a,6-hexahydrocyclopropa[f]indazole-3-carboxamide]
2 | CC12Cc3[nH]nc(C(=O)Nc4cnn(C(c5cccnc5)C5CC[S+]([O-])CC5)c4)c3CC1C2 (single isomer, unassigned) [Example 146d, 5a-methyl-N-(1-((1-oxidotetrahydro-2H-thiopyran-4-yl)(pyridin-3-yl)methyl)-1H-pyrazol-4-yl)-1,4,4a,5,5a,6-hexahydrocyclopropa[f]indazole-3-carboxamide]
0.6 | CC1(C)CCc2c(C(=O)Nc3cnn(C(c4cccnc4)C4CC[S+]([O-])CC4)c3)n[nH]c2C1 (single isomer, unassigned) [Example 147a, 6,6-dimethyl-N-(1-((1-oxidotetrahydro-2H-thiopyran-4-yl)(pyridin-3-yl)methyl)-1H-pyrazol-4-yl)-4,5,6,7-tetrahydro-1H-indazole-3-carboxamide]
